The test system of test [1] is IL-1β induced PGE2 production. In words: PGE2 production induced by IL-1β in chondrocyte cell culture. It counts as cell-based, rabbit. To be noted: Oryctolagus cuniculus, Chondrocyte, read-out: Effects on PGE2 production in rabbit Chondrocyte culture, IC50. An excerpt:
(§1) Conversely, compounds of the invention are able to inhibit, at micromolar concentration, IL-1β induced PGE2 production in cellular systems. This inhibition effect on the production of the pro-inflammatory mediator PGE2, instead of to be ascribed to a direct COX-2 inhibition, as happens with Celecoxib and other COX-2 inhibitors, is in this case due to inhibition of cytokine induced COX-2 expression as proven in cellular systems.
(§2) Effectiveness in inhibition of PGE2 production induced by IL-1β in chondrocyte cell culture, as well as inhibition in IL-1β induced COX-2 expression in SW1353 human chondrosarcoma cell line, is summarized in Table 2, for representative compounds of the invention.

Test [2] has as its system COX-2 expression. In words: IL-1β induced COX-2 expression in SW1353 human chondrosarcoma cell line. It counts as cell-based. The note with it: Homo sapiens, SW1353, read-out: Inhibition of COX-2 expression in SW1353 human chondrosarcoma cell line, IC50.
From the text: as §1, §2

Test [3] has as its system IL-1 production. In words: IL-1 production in IL-1 stimulated human chondrosarcoma cell line. It counts as cell-based. The note with it: Compound concentration is 10 μM. An excerpt:
(§3) The compounds of the invention have been found effective in interfering with cytokine production in several cell lines, representative examples of this effect are reported in Table 3, for two representative cytokines, in IL-1 stimulated human chondrosarcoma cell line.

In test [4] the test system is IL-6 production. In words: IL-6 production in IL-1 stimulated human chondrosarcoma cell line. It counts as cell-based. The note with it: Compound concentration is 10 μM.
From the text: as §3

Test [5] has as its system Zymosan-induced mechanical hyperalgesia. In words: Zymosan-induced mechanical hyperalgesia (Randall-Selitto). It counts as in vivo, rat. To be noted: oral. The method, then:
The interplantar injection of Zymosan-induced mechanical hyperalgesia was used as a model of inflammatory pain (Meller, Neuropharmacology, 1994, 33, 1471-1478). In this model, typically a male Sprague-Dawley or Wistar rat (200-250 g) receives an interplantar injection of 3 mg/100 μl zymosan into one hind paw. A marked inflammation occurs in this hind paw. Drugs are administered orally for evaluation of efficacy, 30 min. before the inflammatory insult. The hyperalgesia induced by zymosan administration was evaluated using the Randall-Selitto method (Arch. Int. Pharmacodyn., 1957, 111, 409). The quantitation of the analgesic effect is achieved by an analgesimeter, which consist in applying to the inflamed paw an increasing weight (from 130-140 g up to 500 g). The difference in the mechanical pain threshold between the basal value (generally 230-250 g) and the one tolerated by the animals treated with the drug, determined 4 hours after the inflammatory challenge, is defined as mechanical hyperalgesia.
Mechanical hyperalgesia is expressed for the compounds of the invention as ED50, which is the dose of the administered compound able to increase the pain threshold by 50% in comparison with the group of control animals. The corresponding ED100, representing the dose able of reducing of 100% the pain threshold, can be calculated for those cases where there is a linear dose-response relationship. In vivo anti-inflammatory effect exerted by the compound of the invention can be assessed in the same Zymosan induced inflammation test described above, by measuring the volume of the oedema induced by the inflammatory agent. The oedema was evaluated as the increase in the volume of the Zymosan injected paw within a time of 0-2 hrs. The measurements of the variation of the oedema volume of the paw were recorded using hydroplethysmometer, which consists of two plastic cuvettes containing a surfactant liquid, the larger one being used for immersion of the paw, connected to the smaller one which contains a trans-ducer capable of recording small displacements of the volume used for the measure. The paw is immersed in the cuvettes up to the tibiotarsal joint. The volume of the liquid displaced is proportional to the extent of the inflammation. The efficacy of the compounds of the invention in preventing oedema formation is expressed as ED30, and is measured 2 hours after the inflammatory challenge, and represents the dose able of reducing of 30%, the Zymosan induced paw volume increase in comparison to control animals (animals treated with Zymosan but treated with only distilled water instead of the testing compound). The corresponding ED50, representing the dose able of reducing of 50% the zymosan induced paw volume increase, can be calculated for those cases where there is a linear dose-response relationship.
In both the experiments, for each test compound, at least three doses were used, with 10 animals per group. Compounds of the invention were tested at 10, 20 and 40 mg/Kg.

The subject of test [6] is acetic acid-induced abdominal writhes. In words: Acetic acid-induced writhing test. It counts as in vivo, mice. The note with it: for MPE (%): 30 min. before acetic acid. Here is the method:
With the aim of assessing whether the compounds of the invention are able to inhibit responses to peritoneal irritation-induced visceral pain, the acetic acid-induced writhing assay was used in mice to determine the degree of anti-nociception.
The writhing test is a model of inflammatory pain that has long been used as a screening tool for evaluation of analgesic and anti-inflammatory agents (HDJ Collier, B. J. Pharmacol Chemother., 1968, 32, 295-310). The test was performed inducing nociception by an i.p. injection of acetic acid 1%, 0.1 mL/10 g of body weight. Mice were pre-treated (subcutaneously, s.c., three different doses: 3, 10, 30 mg/Kg) with the tested compounds 30 min. before acetic acid injection, while control animals received a similar volume of saline solution. A group of mice was treated with Paracetamol (200 mg/Kg, s.c.) as reference drug. The number of abdominal writhes (full extension of both hind paws) was cumulatively counted every 5 minutes over a period of 20 min. immediately after the acetic acid injection. The anti-nociceptive activity was expressed as inhibition of abdominal writhes as maximum percent effect (MPE), which represents the difference (%) in pain threshold between the animals treated with the drug and the ones that received only the vehicle.
(In general: Writhing tests count abdominal constrictions after an irritant is injected.)

Test [7] concerns formalin-induced paw licking. In words: Formalin (licking) test. It counts as in vivo, mice. The note with it: Mus musculus, ip, 1 hour before formalin. Here is the method:
The formalin test is increasingly used as a model of injury-produced pain (FV. Abbott, Pain, 1995, 60, 91-102). The procedure used for the evaluation of the compounds of the invention was similar to that reported by literature (S. Hunskaar, Pain, 1987, 30, 103-104), and consisted of the injection of 20 μl of 1% solution of formalin dissolved in distilled water, in the plantar surface of the right hind paw of the mice. Immediately, the animals were placed individually in an observation chamber. The amount of time that the animal spent licking the injected paw, considered indicative of pain, was recorded during 30 min. following formalin injection. The initial nociceptive scores normally peaked 5 min after formalin injection (early phase) and 15-30 min. after formalin injection (late phase), representing both the neurogenic and inflammatory pain responses respectively.
Animals were treated i.p. with an aqueous solution of the tested compound (doses: 3, 10, 30 mg/Kg), 1 hour before the formalin injection. Control animals received only the vehicle.
In Table 8, the analgesic effect elicited in this test by a representative compound of Formula (I), is expressed as ED50 both for the early and late phase, and compared with the performance of the standard reference, paracetamol.

Read-outs that look alike come from different tables or passages of the source.

By IC50 is commonly meant the concentration at which inhibition is half-maximal.

For the compound `CC(=N)Nc1ccc2nc(-c3ccc4c(c3)OCO4)ncc2c1` [Example 1, N-[2-(1,3-benzodioxol-5-yl)quinazolin-6-yl]acetamidine], the results for the IC50 in test [1] and in test [2] were 4.1 µM and 4.6 µM, respectively. In test [3], the “Inhibition (%) of IL-1 production” value came out at 50%. Further, in test [4], the “Inhibition (%) of IL-6 production” value stood at 65%. Besides, the ED50 in test [5] (Rattus norvegicus, 30 min before zymosan, 4 hours after challenge, read-out: Analgesia ED50) came out at 6 mg/kg; in test [6] (Mus musculus, sc, writhing test, read-out: ED50), 9.8 mg/kg; in test [7] (early phase, read-out: Analgesic effect ED50 (mg/Kg) Early phase) it was 19 mg/kg; in test [7] (late phase, read-out: Analgesic effect ED50 (mg/Kg) Late phase), 13 mg/kg. Further, the “Analgesia ED100” value in test [5] (calculated from linear dose-response) is recorded as 18 mg/kg. For the same compound, the “MPE (%)” value in test [6] (3 mg/Kg s.c.) is 30%; in test [6] (10 mg/Kg s.c.), 33%; in test [6] (30 mg/Kg s.c.), 89%.

(Values after patent US7968558B2, “Amidine derivatives of 2-heteroaryl-quinazolines and quinolines; potent analgesics and anti-inflammatory agents” (Rottapharm S.p.A., priority 2006, dated 2011).)
